The source of these data is patent US20230404985A1, “METHODS OF TREATING TUMORS AND CANCERS HAVING DYSREGULATED WNT SIGNALING PATHWAYS” (ICAHN SCHOOL OF MEDICINE AT MOUNT SINAI, priority 2020, published 2023).

Test [1] concerns MYC-lucOS; CTNNB1 mutant HCC. Description: Hydrodynamic tail vein model of CTNNB1-mutated HCC, survival. The class given is in vivo, C57/BL6 mice. Particulars: 5 days on/2 days off. Here is the method: A sterile 0.9% NaCl solution/plasmid mix was prepared containing DNA—12 μg of pT3-EF1α-MYC-IRES-luciferase-OS (MYC-lucOS), 10 μg of pT3-N90-CTNNB1 (CTNNB1), and a 4:1 ratio of transposon to SB13 transposase-encoding plasmid. A volume equivalent to 10% of mouse body weight was injected through the tail vein using a 3 mL syringe with a 26-gauge needle (11). Animals were monitored for 6 days, and bioluminescent signal from tumors was visualized using an IVIS Spectrum system. Anesthetized mice were imaged 5 minutes after intraperitoneal injection of 100 mg/kg D-luciferin (Thermo Fisher Scientific). IVIS Living Image software was used to quantify luciferase signal, which was normalized by subtracting background signal. […] Oral drug treatment began in randomized arms seven days after plasmid injection. Kinase inhibitors were prepared as stated above, and WNTinib and sorafenib were dosed at concentrations of 20 mg/kg and 30 mg/kg, respectively. Drugs were administered following a 5 days on/2 days off treatment schedule. Body weights were recorded daily, and animals were monitored for signs of sickness, tumor palpability, and death. Sick animals were sacrificed according to the ISMMS IACUC guidelines.
Given that tumors with dysregulated WNT signaling are associated with tumor immune exclusion and overall are refractory to treatment with immune checkpoint inhibitors, the efficacy of WNTinib was tested in combination with immunotherapy. First, a hydrodynamic tail vein mouse model of MYC-lucOS, CTNNB1 mutant HCC, which is known to be refractory to treatment with anti-PD-1 was used (Ruiz de Galarreta et al., “O-Catenin Activation Promotes Immune Escape and Resistance to Anti-PD-1 Therapy in Hepatocellular Carcinoma,” Cancer Discov. 9(8):1124-1141 (2019), which is hereby incorporated by reference in its entirety). C57/BL6 mice were randomized into treatment groups using IVIS imaging to quantify tumor size based on luminescence signal intensity. After randomization, kinase inhibitors were dissolved in 25% cremaphor:ethanol in water and administered orally (30 mg/kg sorafenib, 20 mg/kg WNTinib) beginning 7 days after injection following a 5 days on/2 days off dosing schedule. Immunotherapy (anti-PD-1) was administered via intraperitoneal injection on days 11, 13, and 15 after injection at […].

The test system of test [2] is MYC-CTNNB1 tumor organoids. Description: Combination treatment matrices in MYC-CTNNB1 tumor organoids. Format: cell-based, mouse. The following applies: for effect of EZH2 degradation or inhibition (MS1943, GSK343) on activity: 3 days MS1943 or GSK343, then 3 days co-treatment; for Combination Index CI with p38i SB202190: titration of SB202190; for Combination Index CI with p38i SB202190 / Combination Index CI with KIT ligand SCF / Combination Index CI with BRAFi dabrafenib: 3 days; for Combination Index CI with KIT ligand SCF: titration of SCF; for Combination Index CI with BRAFi dabrafenib: titration of dabrafenib. From the text: FIG. 6A-6C are Volcano plots depicting phosphoproteomic (FIG. 6A), transcriptomic (FIG. 6B), and orepigenomic H3K27me3 (FIG. 6C) changes elicited by WNTinib inMYC-CTNNB1 tumor organoids (left) or MYC-Tp53 tumor organoids (right) as compared to DMSO. […] Values obtained from two biological replicates. […] Western blots measure endogenous proteins as indicated. […] Tubulin and histone H3 used as fractionation controls. […] Inset: western blot depicting depletion efficiency. Values obtained from three biological replicates [mean, SEM]. […] Tumor organoids were first treated with MS1943 or GSK343 for 3 days, followed by co-treatment with sorafenib or WNTinib for an additional 3 days. […] Combination index (CI) values were calculated for each column and averaged across each matrix.
Tumor organoids were treated for 3 days. […] Combination index (CI) values were calculated for each column and averaged across each matrix. […] FIGS. 7G-7H show combination treatment matrices for MYC-CTNNB1 tumor organoids treated with sorafenib (right) or WNTinib (left) and the BRAF inhibitor dabrafenib (FIG. 7G), or the p38 inhibitor SB202190 (FIG. 7H). Tumor organoids were treated for 3 days. […] Combination index (CI) values were calculated for each column and averaged across each matrix. […] Values obtained from three technical replicates [mean, SEM].
For assays in organoid lines, 96 well plates were first coated with a 50:50 solution of basal media:Matrigel (35 μL/well), which polymerized for 15 minutes at 37° C. Tumor organoids were taken out of Matrigel, broken, and washed. Tumor organoids were seeded at 1,000 cells per well and were treated the following day with serial dilutions (in the case of IC50 curves) or single doses (in the case of the initial screen) of drugs in technical triplicate. Final DMSO concentrations were kept below 0.5%. For adherent lines, cells were seeded at 5,000 cells per well in uncoated 96 well plates. […] Viability was measured three days post drug administration with either luminescence from CellTiter-Glo or absorbance at 560 and 590 nm from resazurin. Viability data was analyzed by normalizing individual drug-treated well values to DMSO-treated wells.

In the case of `CNC(=O)c1cc(Oc2ccc(NC(=O)Nc3ccc(C(F)(F)C(F)(F)F)cc3)c(F)c2)ccn1` [WNTinib, 4-(3-fluoro-4-(3-(4-(perfluoroethyl)phenyl)ureido)phenoxy)-N-methylpicolinamide], in test [1] (WNTinib 20 mg/kg), the “remaining animals alive, time post final dosing” value is on record as “over 300 days”; the “share of treatment arm that succumbed to death” value turned out to be 40%; the “survival benefit” value was “significant survival benefit”. For the same molecule, in test [2], the “effect of EZH2 degradation or inhibition (MS1943, GSK343) on activity” value is “antagonized the activity of WNTinib”; the “Combination Index CI with p38i SB202190” value is above 1; the “Combination Index CI with KIT ligand SCF” value was above 1; the “Combination Index CI with BRAFi dabrafenib” value is given as above 1.
`CNC(=O)c1cc(Oc2ccc(NC(=O)Nc3ccc(Cl)c(C(F)(F)F)c3)cc2)ccn1` [sorafenib, reference compound]: the survival benefit in test [1] (sorafenib 30 mg/kg) is 7.5 days. Besides, in test [2], the “effect of EZH2 degradation or inhibition (MS1943, GSK343) on activity” value was “did not alter the dose response to sorafenib”; the “Combination Index CI with p38i SB202190” value is on record as “this was not the case for sorafenib”; the “Combination Index CI with KIT ligand SCF” value is “only WNTinib and not sorafenib activity was antagonized”; the “Combination Index CI with BRAFi dabrafenib” value is reported as “this was not the case for sorafenib”.
